# Values joined by “and” are separate entries in the source; they are usually repeats but may differ in a detail not shown here. Equal values may be shown once.
# System: Escherichia coli US311
# Experiment: in vivo activity against Escherichia coli US311 in mice (systemic lethal infection, single subcutaneous dose)
# Set-up: species or system Escherichia coli US311 in Carworth Farms CF-1 mice
# Description: The starting material for the acylation procedure has been defined hereinabove as antibiotic BM123γ having formula (IV). When R' is structure (II) in formula (IV), then the antibiotic is BM123γ1 and when R' is structure (III) in formula (IV), then the antibiotic is BM123γ2. […] The preparation and properties of trans-BM123γ1 and trans-BM123γ2 are disclosed in U.S. Pat. No. 4,007,167 whereas the preparation and properties of cis-BM123γ1 and cis-BM123γ2 are set forth in U.S. Pat. No. 4,018,972. The term cis-BM123γ refers to a mixture in any proportion of cis-BM123γ1 and cis-BM123γ2 whereas the term trans-BM123γ refers to a mixture in any proportion of trans-BM123γ1 and trans-BM123γ2. The expression antibiotic BM123γ refers to either cis-BM123γ or trans-BM123γ. […] These new substances show high in vivo antibacterial activity in mice against Escherichia coli US311 when administered by a single subcutaneous dose to groups of Carworth Farms CF-1 mice, weight about 20 grams, infected intraperitoneally with a lethal dose of this bacteria in a 10^-3 trypticase soy broth TSP dilution of a 5 hour TSP blood culture. In Table I below is set forth the in vivo activity of typical products of this invention (prepared by the procedure of Example 1 from the indicated activated ester which was prepared by the procedure of Example 2 or Example 3) against Escherichia coli US311 in mice. The activity is expressed in terms of the ED50 or the dose in mg./kg. of body weight required to protect 50% of the mice against E. coli. The derivative name in Table I indicates whether cis-BM123 or trans-BM123 was employed as starting material.
# [1] = infected intraperitoneally with lethal dose of E. coli US311
Substance,ED50 (dose required to protect 50% of the mice against E. coli) [1],"ED50 (dose required to protect 50% of the mice against E. coli) (infected intraperitoneally with lethal dose of E. coli US311, listed as α-Phenyoxypropionyl-trans-BM123γ)"
p-Hydroxybenzoyl-trans-BM123γ,2.0 mg./kg. of Body Weight,–
m-Hydroxybenzoyl-trans-BM123γ,1.5 mg./kg. of Body Weight,–
m-Fluorobenzoyl-trans-BM123γ,1.0 mg./kg. of Body Weight,–
Cinnamoyl-trans-BM123γ,2.0 mg./kg. of Body Weight,–
p-Fluorobenzoyl-trans-BM123γ,1.0 mg./kg. of Body Weight,–
p-Methoxybenzoyl-trans-BM123γ,1.0 mg./kg. of Body Weight,–
8-Bromo-1-napthoyl-trans-BM123γ,1.5 mg./kg. of Body Weight,–
1-Naphthoyl-trans-BM123γ,0.5 mg./kg. of Body Weight,–
2-Methylpropionyl-trans-BM123γ,2.0 mg./kg. of Body Weight,–
4-(p-Chlorophenylsulfonyl)-benzoyl-trans-BM123γ,2.0 mg./kg. of Body Weight,–
"4-Ethyl-2,3-diketopiperazine-1-carbonyl-trans-BM123γ",2.0 mg./kg. of Body Weight,–
Phenoxyacetyl-trans-BM123γ,1.0 mg./kg. of Body Weight,–
o-Benzoylbenzoyl-trans-BM123γ,2.0 mg./kg. of Body Weight,–
Trichloroacetyl-trans-BM123γ,1.0 mg./kg. of Body Weight,–
p-Trifluoromethylbenzoyl-trans-BM123γ,4.0 mg./kg. of Body Weight,–
"3,4-Dimethylbenzoyl-trans-BM123γ",2.0 mg./kg. of Body Weight,–
Trimethylacetyl-trans-BM123γ,1.0 mg./kg. of Body Weight,–
Carbethoxyformyl-trans-BM123γ,1.0 mg./kg. of Body Weight,–
"2,6-Dimethoxybenzoyl-trans-BM123γ",2.0 mg./kg. of Body Weight,–
"2,4-Dichlorobenzoyl-trans-BM123γ",0.5 mg./kg. of Body Weight and 1.0 mg./kg. of Body Weight,–
2-Furyl-trans-BM123γ,1.0 mg./kg. of Body Weight,–
o-Mercaptobenzoyl-trans-MB123γ,2.0 mg./kg. of Body Weight,–
Propionyl-trans-BM123γ,4.0 mg./kg. of Body Weight,–

Substance,ED50 (dose required to protect 50% of the mice against E. coli) [1],"ED50 (dose required to protect 50% of the mice against E. coli) (infected intraperitoneally with lethal dose of E. coli US311, listed as α-Phenyoxypropionyl-trans-BM123γ)"
"3,4-Dichlorobenzoyl-trans-BM123γ",0.5 mg./kg. of Body Weight and 1.0 mg./kg. of Body Weight,–
"2,3,6-Trichlorobenzoyl-trans-BM123γ",2.0 mg./kg. of Body Weight,–
p-Ethoxybenzoyl-trans-BM123γ,2.0 mg./kg. of Body Weight,–
o-Acetoxybenzoyl-trans-BM123γ,2.0 mg./kg. of Body Weight,–
Cyclopropylcarbonyl-trans-BM123γ,2.0 mg./kg. of Body Weight,–
p-Chlorobenzoyl-trans-BM123γ,4.0 mg./kg. of Body Weight,–
Pentafluorobenzoyl-trans-BM123γ,0.5 mg./kg. of Body Weight,–
3-Methoxy-2-naphthoyl-trans-BM123γ,2.0 mg./kg. of Body Weight,–
α-Bromopropionyl-trans-BM123γ,2.0 mg./kg. of Body Weight,–
p-Dimethylaminobenzoyl-trans-BM123γ,2.0 mg./kg. of Body Weight,–
p-Formylbenzoyl-trans-BM123γ,2.0 mg./kg. of Body Weight,–
p-Biphenylcarbonyl-trans-BM123γ,2.0 mg./kg. of Body Weight,–
p-Acetylbenzoyl-trans-BM123γ,2.0 mg./kg. of Body Weight,–
o-Methylbenzoyl-trans-BM123γ,2.0 mg./kg. of Body Weight and 1.0 mg./kg. of Body Weight,–
4-Oxy-4H-thiapyran-3-yl-carbonyl-trans-BM123γ,2.0 mg./kg. of Body Weight,–
"4-Carbethoxy-3,5-dimethoxybenzoyl-trans-BM123γ",2.0 mg./kg. of Body Weight,–
2-Napthyloxyacetyl-trans-BM123γ,0.5 mg./kg. of Body Weight,–
2-Thienyl-trans-BM123γ,1.0 mg./kg. of Body Weight,–
Decanoyl-trans-BM123γ,2.0 mg./kg. of Body Weight,–
Methoxyacetyl-trans-BM123γ,2.0 mg./kg. of Body Weight,–
α-Phenoxypropionyl-trans-BM123γ,2.0 mg./kg. of Body Weight and 1.0 mg./kg. of Body Weight,2.0 mg./kg. of Body Weight
m-Phenoxybenzoyl-trans-BM123γ,1.5 mg./kg. of Body Weight,–
p-Trifluoromethoxybenzoyl:trans-BM123γ,1.0 mg./kg. of Body Weight,–

Substance,ED50 (dose required to protect 50% of the mice against E. coli) [1],"ED50 (dose required to protect 50% of the mice against E. coli) (infected intraperitoneally with lethal dose of E. coli US311, listed as α-Phenyoxypropionyl-trans-BM123γ)"
m-Methylbenzoyl-trans-BM123γ,1.0 mg./kg. of Body Weight,–
o-Fluorobenzoyl-trans-BM123γ,1.0 mg./kg. of Body Weight,–
m-Mercaptobenzoyl-trans-BM123γ,2.0 mg./kg. of Body Weight,–
Pyridine-n-oxide-2-carbonyl-trans-BM123γ,2.0 mg./kg. of Body Weight,–
"3,5-Dichlorobenzoyl-trans-BM123γ",0.5 mg./kg. of Body Weight,–
p-t-Butylbenzoyl-trans-BM123γ,4.0 mg./kg. of Body Weight,–
p-Methylthiobenzoyl-trans-BM123γ,4.0 mg./kg. of Body Weight,–
"2,5-Dibromobenzoyl-trans-BM123γ",2.0 mg./kg. of Body Weight,–
4-Fluoro-1-naphthoyl-trans-BM123γ,1.0 mg./kg. of Body Weight,–
p-Cyanobenzoyl-trans-BM123γ,4.0 mg./kg. of Body Weight,–
p-Nitrobenzoyl-trans-BM123γ,0.5 mg./kg. of Body Weight,–
o-Hydroxybenzoyl-trans-BM123γ,8.0 mg./kg. of Body Weight,–
m-Bromobenzoyl-trans-BM123γ,0.75 mg./kg. of Body Weight,–
o-Benzylbenzoyl-trans-BM123γ,2.0 mg./kg. of Body Weight,–
"3,5-Dinitrobenzoyl-trans-BM123γ",1.0 mg./kg. of Body Weight,–
p-Acetaminobenzoyl-trans-BM123γ,2.0 mg./kg. of Body Weight,–
p-Sulfamylbenzoyl-trans-BM123γ,0.5 mg./kg. of Body Weight,–
"1,4-Thiapyran(2)carbonyl-trans-BM123γ",2.0 mg./kg. of Body Weight,–
Pentachlorobenzoyl-trans-BM123γ,2.0 mg./kg. of Body Weight,–
Chlorodiphenylacetyl-trans-BM123γ,2.0 mg./kg. of Body Weight,–
Benzoyl-trans-BM123γ,4.0 mg./kg. of Body Weight,–
"3,4,5-Trimethoxybenzoyl-trans-BM123γ",2.0 mg./kg. of Body Weight,–

# Reference: US4112219A, “Acyl derivatives of antibiotic BM123γ” (American Cyanamid Company, priority 1977, dated 1978)
